Values joined by “and” are separate entries in the source; they are usually repeats but may differ in a detail not shown here. Identical values can stand only once. Inconclusive results and toxic doses are left out. No stated cut-off is given here; in the data, active means T/C of 150% or more; inactive means T/C below 125%.
Tested on: L1210 leukemia ip in BDF1 mice, survival T/C
Assay: NCI In Vivo Anticancer Drug Screen. Data for tumor model L1210 Leukemia (intraperitoneal) in B6D2F1 (BDF1) mice
Settings: endpoint: mean survival time, higher = longer survival
Method in brief: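 Antitumor effect is assessed in tumor-bearing animals. Survival in the compound arm is compared with a vehicle-dosed control arm and expressed as their quotient.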

[1] = dose: 100.0 mg/kg/injection, schedule: Q04DX003 (ip), vehicle: other
[2] = dose: 200.0 mg/kg/injection, schedule: Q04DX003 (ip), vehicle: other
[3] = dose: 100.0 mg/kg/injection, schedule: Q04DX003 (ip), vehicle: Klucel (hydroxypropylcellulose) (HPC)
[4] = dose: 200.0 mg/kg/injection, schedule: Q04DX003 (ip), vehicle: Klucel (hydroxypropylcellulose) (HPC)
[5] = dose: 400.0 mg/kg/injection, schedule: Q04DX003 (ip), vehicle: Klucel (hydroxypropylcellulose) (HPC)
[6] = dose: 100.0 mg/kg/injection, schedule: Q01DX001 (ip), vehicle: saline with Tween-80
[7] = dose: 200.0 mg/kg/injection, schedule: Q01DX001 (ip), vehicle: saline with Tween-80
[8] = dose: 100.0 mg/kg/injection, schedule: Q01DX001 (ip), vehicle: Klucel (hydroxypropylcellulose) (HPC)
[9] = dose: 200.0 mg/kg/injection, schedule: Q01DX001 (ip), vehicle: Klucel (hydroxypropylcellulose) (HPC)
[10] = dose: 100.0 mg/kg/injection, schedule: Q04DX002 (ip), vehicle: saline
[11] = dose: 200.0 mg/kg/injection, schedule: Q04DX002 (ip), vehicle: saline
[12] = dose: 400.0 mg/kg/injection, schedule: Q04DX002 (ip), vehicle: saline
[13] = dose: 100.0 mg/kg/injection, schedule: Q01DX009 (ip), vehicle: Klucel (hydroxypropylcellulose) (HPC)
[14] = dose: 100.0 mg/kg/injection, schedule: Q04DX002 (ip), vehicle: Klucel (hydroxypropylcellulose) (HPC)
[15] = dose: 200.0 mg/kg/injection, schedule: Q01DX009 (ip), vehicle: Klucel (hydroxypropylcellulose) (HPC)
[16] = dose: 200.0 mg/kg/injection, schedule: Q04DX002 (ip), vehicle: Klucel (hydroxypropylcellulose) (HPC)
[17] = dose: 400.0 mg/kg/injection, schedule: Q04DX002 (ip), vehicle: Klucel (hydroxypropylcellulose) (HPC)
[18] = dose: 75.0 mg/kg/injection, schedule: Q01DX001 (ip), vehicle: saline
[19] = dose: 12.5 mg/kg/injection, schedule: Q04DX003 (ip), vehicle: saline
[20] = dose: 25.0 mg/kg/injection, schedule: Q04DX003 (ip), vehicle: saline
[21] = dose: 50.0 mg/kg/injection, schedule: Q04DX003 (ip), vehicle: saline
[22] = dose: 50.0 mg/kg/injection, schedule: Q01DX009 (ip), vehicle: saline

Measured: T/C

COC1C(COS(=O)(=O)c2ccc(C)cc2)OC2OC(C)(C)OC21 (centres undefined)
inactive: [1] 92 % of control | [2] 97 % of control | dose: 400.0 mg/kg/injection, schedule: Q04DX003 (ip), vehicle: other 101 % of control

Cc1cc(N(CCCCl)CCCCl)ccc1C=Nc1cc(Br)c(O)c(Br)c1
inactive: [3] 94 % of control | [4] 95 % of control | [5] 96 % of control

C1CCC2(CC1)CCCO2
inactive: dose: 50.0 mg/kg/injection, schedule: Q04DX002 (ip), vehicle: saline with Tween-80 87 % of control | dose: 100.0 mg/kg/injection, schedule: Q04DX002 (ip), vehicle: saline with Tween-80 98 % of control | dose: 200.0 mg/kg/injection, schedule: Q04DX002 (ip), vehicle: saline with Tween-80 106 % of control | dose: 400.0 mg/kg/injection, schedule: Q04DX002 (ip), vehicle: saline with Tween-80 102 % of control

C=C1C(=O)OC2CCCCC3OC3C12 (centres undefined)
inactive: [6] 102 % of control

N#Cc1cc(Cl)c(OCc2ccccc2)c(Cl)c1
inactive: dose: 50.0 mg/kg/injection, schedule: Q01DX001 (ip), vehicle: saline with Tween-80 102 % of control | [6] 104 % of control | [7] 95 % of control

Cc1ccc(N2C(=O)C=C(c3ccccc3)C2=O)cc1
inactive: dose: 75.0 mg/kg/injection, schedule: Q04DX003 (ip), vehicle: Klucel (hydroxypropylcellulose) (HPC) 104 % of control | dose: 150.0 mg/kg/injection, schedule: Q04DX003 (ip), vehicle: Klucel (hydroxypropylcellulose) (HPC) 105 % of control | dose: 300.0 mg/kg/injection, schedule: Q04DX003 (ip), vehicle: Klucel (hydroxypropylcellulose) (HPC) 104 % of control

O=C1NC(=O)C(c2ccccc2Cl)N1 (centres undefined)
inactive: [8] 109 % of control | [3] 102 % of control | [9] 118 % of control | [4] 100 % of control | dose: 400.0 mg/kg/injection, schedule: Q01DX001 (ip), vehicle: Klucel (hydroxypropylcellulose) (HPC) 103 % of control | [5] 98 % of control

Cc1ccc(CCCC#N)[nH]1
inactive: dose: 100.0 mg/kg/injection, schedule: Q01DX001 (sc), vehicle: carboxymethylcellulose (CMC) 110 % of control | dose: 200.0 mg/kg/injection, schedule: Q01DX001 (sc), vehicle: carboxymethylcellulose (CMC) 113 % of control

CC(=O)OCCOc1cccc(C)c1
inactive: [10] 114 % of control | [11] 96 % of control | [12] 107 % of control

O=C(Cc1c(F)c(F)c(F)c(F)c1F)Nc1ccc(-c2nc3ccccc3s2)cc1
inactive: [8] 87 % of control | [13] 115 % of control | [14] 104 % of control and 115 % of control | [3] 95 % of control | [9] 90 % of control | [15] 105 % of control | [16] 93 % of control and 95 % of control | [4] 97 % of control | [17] 95 % of control and 96 % of control | [5] 97 % of control

CC(C)CC(CC(C)C)NC(C)COC(=O)c1ccc(N)cc1 (centres undefined)
inactive: [18] 96 % of control

CCC(CS(=O)(=O)O)[N+](=O)[O-] (centres undefined)
inactive: [10] 96 % of control | [11] 96 % of control | [12] 107 % of control

COc1ccc(C(C(C)=O)N2CCN(c3ccccc3)CC2)cc1 (centres undefined)
inactive: [1] 98 % of control | [2] 95 % of control

C=CC[P+](Cc1cccc(OC)c1)(c1ccccc1)c1ccccc1
inactive: dose: 6.25 mg/kg/injection, schedule: Q04DX003 (ip), vehicle: saline 98 % of control | [19] 98 % of control | [20] 98 % of control | [21] 93 % of control

CCCCNCC1COc2cccc(OCC)c2O1 (centres undefined)
inactive: dose: 6.25 mg/kg/injection, schedule: Q01DX009 (ip), vehicle: saline 107 % of control | dose: 12.5 mg/kg/injection, schedule: Q01DX009 (ip), vehicle: saline 105 % of control | [19] 106 % of control | dose: 25.0 mg/kg/injection, schedule: Q01DX009 (ip), vehicle: saline 108 % of control | [20] 95 % of control | [22] 113 % of control | [21] 108 % of control | dose: 100.0 mg/kg/injection, schedule: Q01DX001 (ip), vehicle: saline 103 % of control | dose: 100.0 mg/kg/injection, schedule: Q04DX003 (ip), vehicle: saline 95 % of control

COc1ccc2c(c1O)C1(CCN(C)C)CC(=O)CCC1C=C2 (centres undefined)
inactive: [18] 96 % of control | dose: 150.0 mg/kg/injection, schedule: Q01DX001 (ip), vehicle: saline 100 % of control | dose: 300.0 mg/kg/injection, schedule: Q01DX001 (ip), vehicle: saline 89 % of control

Cn1c(N)c(C(C[N+](=O)[O-])c2ccccc2)c(=O)n(C)c1=O (centres undefined)
inactive: dose: 50.0 mg/kg/injection, schedule: Q01DX009 (ip), vehicle: Klucel (hydroxypropylcellulose) (HPC) 95 % of control | [13] 92 % of control | [15] 98 % of control

O=C(O)C12CCC(CC1)C2
inactive: [22] 106 % of control | dose: 100.0 mg/kg/injection, schedule: Q01DX009 (ip), vehicle: saline 110 % of control | dose: 200.0 mg/kg/injection, schedule: Q01DX009 (ip), vehicle: saline 112 % of control | dose: 400.0 mg/kg/injection, schedule: Q01DX009 (ip), vehicle: saline 96 % of control

CCCCP(=[Se])(CCCC)CCCC
inactive: dose: 0.78 mg/kg/injection, schedule: Q01DX009 (ip), vehicle: Klucel (hydroxypropylcellulose) (HPC) 93 % of control | dose: 1.56 mg/kg/injection, schedule: Q01DX009 (ip), vehicle: Klucel (hydroxypropylcellulose) (HPC) 97 % of control | dose: 3.12 mg/kg/injection, schedule: Q01DX009 (ip), vehicle: Klucel (hydroxypropylcellulose) (HPC) 112 % of control | dose: 6.25 mg/kg/injection, schedule: Q01DX009 (ip), vehicle: Klucel (hydroxypropylcellulose) (HPC) 104 % of control

CNC(=O)CCC(NS(=O)(=O)c1ccc(C)cc1)C(=O)OC (centres undefined)
inactive: [6] 100 % of control | [7] 94 % of control | dose: 400.0 mg/kg/injection, schedule: Q01DX001 (ip), vehicle: saline with Tween-80 97 % of control

Cc1cc(OC(=O)Nc2ccccc2C)ccc1Cl
inactive: [14] 111 % of control | [16] 103 % of control | [17] 118 % of control

CC1(C)CS(=O)(=O)CC(C)(C)C(=O)C1=O
inactive: [8] 108 % of control

Cc1ccc(N=Nc2c(N)ccc3ccccc23)cc1
inactive: dose: 100.0 mg/kg/injection, schedule: Q01DX001 (ip), vehicle: other 100 % of control | dose: 200.0 mg/kg/injection, schedule: Q01DX001 (ip), vehicle: other 100 % of control

Cn1nc(C(=O)O)c(=O)[nH]c1=O
inactive: dose: 100.0 mg/kg/injection, schedule: Q01DX Z (ip), vehicle: methylcellulose (MC) 97 % of control

Clc1ccccc1C(N1CCCCC1)C(Cl)(Cl)Cl (centres undefined)
inactive: [10] 92 % of control | [11] 90 % of control | [12] 92 % of control

Source: PubChem BioAssay AID248 (DTP/NCI, 2004)
